Values joined by “and” are separate entries in the source; they are usually repeats but may differ in a detail not shown here. Equal entries are not always repeated. Where two headings read alike, the source gives them in different places.
Columns and labels:
Assay in all cases: Greenhouse test, pre-emergence treatment
[1] = system: ECHCG; type: in vivo, Echinocloa crus-galli; conditions: Echinochloa crus-galli, 480 h, read-out: observed % activity 20 DAT
Excerpt: (§1) The culture containers used were plastic flowerpots containing loamy sand with approximately 3.0% of humus as the substrate. The seeds of the test plants were sown separately for each species.
(§2) For the pre-emergence treatment, the active ingredients, which had been suspended or emulsified in water, were applied directly after sowing by means of finely distributing nozzles. The containers were irrigated gently to promote germination and growth and subsequently covered with transparent plastic hoods until the plants had rooted. This cover caused uniform germination of the test plants, unless this had been impaired by the active ingredients.
(§3) Depending on the species, the plants were kept at 10-25° C. or 20-35° C., respectively.
(§4) The test period extended over 2 to 4 weeks. During this time, the plants were tended, and their response to the individual treatments was evaluated.
(§5) Evaluation was carried out using a scale from 0 to 100. 100 means no emergence of the plants, or complete destruction of at least the aerial moieties, and 0 means no damage, or normal course of growth. A moderate herbicidal activity is given at values of at least 60, a good herbicidal activity is given at values of at least 70, and a very good herbicidal activity is given at values of at least 85.
(§6) The respective stated components a and b, and if appropriate, c were formulated as a 10% by weight strength emulsion concentrate and, with addition of the amount of solvent system, introduced into the spray liquor used for applying the active compound.
(§7) In the examples, the solvent used was water.
(§8) In the examples below, using the method of S. R. Colby (1967) “Calculating synergistic and antagonistic responses of herbicide combinations”, Weeds 15, p. 22ff., the value E, which is expected if the activity of the individual active compounds is only additive, was calculated. E=X+Y−(X·Y/100) where • X=percent activity using active compound a at an application rate A; • Y=percent activity using active compound b at an application rate B; • E=expected activity (in %) by a+b at application rates A+B.
(§9) If the value found experimentally is higher than the value E calculated according to Colby, a synergistic effect is present.

[2] = system: LOLMU; type: in vivo, Lolium multiflorum; conditions: for observed % activity: 20 DAT
Excerpt: as §1, §2, §3, §4, §5, §6, §7, §8, §9

[3] = system: GERPU; type: in vivo, Geranium pusillum; conditions: pre-emergence, pre-emergence
Summary of the method: (§10)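 Seeds were sown in loamy sand with approximately 3.0% humus, then sprayed at once with actives suspended or emulsified in water. Pots were watered, hooded until rooting, held at 10-25° C. or 20-35° C. by species for 2 to 4 weeks, and scored 0 (no damage) to 100 (no emergence/complete destruction).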

[4] = system: ALOMY; type: in vivo, Alopecurus myosuroides
Excerpt: as §1, §2, §3, §4, §5, §6, §7, §8, §9

[5] = system: KCHSC; type: in vivo, Kochia scoparia; conditions: for inhibition at 31 g/ha: use rate 31 g ai/ha; for inhibition at 62 g/ha: use rate 62 g ai/ha; for observed % activity: 20 DAT
Summary of the method: as §10

[6] = system: SETFA; type: in vivo, Setaria faberi; conditions: for inhibition at 7.75 g/ha / inhibition at 15.5 g/ha: Setaria faberi, 480 h, read-out: observed % activity 20 DAT; for inhibition at 15.5 g/ha: use rate 15.5 g ai/ha
Excerpt: as §1, §2, §3, §4, §5, §6, §7, §8, §9

[7] = system: VIOAR; type: in vivo, Viola arvensis; conditions: Viola arvensis, 480 h, read-out: observed % activity 20 DAT
Excerpt: as §1, §2, §3, §4, §5, §6, §7, §8, §9

[8] = system: PHACA; type: in vivo, Phalaris canariensis
Excerpt: as §1, §2, §3, §4, §5, §6, §7, §8, §9

[9] = system: POLCO; type: in vivo, Polygonum convolvulus; conditions: for inhibition at 62 g/ha: use rate 62 g ai/ha; for observed % activity: 20 DAT
Summary of the method: as §10

[10] = system: APESV; type: in vivo, Apera spica-venti; conditions: use rate 15.5 g ai/ha
Excerpt: as §1, §2, §3, §4, §5, §6, §7, §8, §9

[11] = system: GALAP; type: in vivo, Galium aparine; conditions: 20 DAT
Summary of the method: as §10

[12] = system: SORHA; type: in vivo, Sorghum halepense; conditions: 125 g ai/ha, 20 DAT
Excerpt: as §1, §2, §3, §4, §5, §6, §7, §8, §9

[13] = system: AVEFA; type: in vivo, Avena fatua; conditions: 250 g ai/ha, 20 DAT
Excerpt: as §1, §2, §3, §4, §5, §6, §7, §8, §9

[14] = pre-emergence, use rate 7.75 g ai/ha
[15] = pre-emergence, use rate 15.5 g ai/ha
[16] = pre-emergence, use rate 31 g ai/ha
[17] = pre-emergence, use rate 62 g ai/ha
[18] = Bassia scoparia, pre-emergence, 480 h, KCHSC, pre-emergence, individual, read-out: observed % activity 20 DAT
[19] = Bassia scoparia, pre-emergence, 480 h, pre-emergence, read-out: observed % activity 20 DAT

CC(C)(F)c1nc(N)nc(Nc2c(F)cccc2F)n1 [compound 10, N4-(2,6-difluorophenyl)-6-(1-fluoro-1-methyl-ethyl)-1,3,5-triazine-2,4-diamine]
inhibition at 7.75 g/ha ([1]; use rate 7.75 g ai/ha): 90%
inhibition at 15.5 g/ha ([1]; use rate 15.5 g ai/ha): 95%
inhibition at 7.75 g/ha ([2]; Lolium multiflorum, pre-emergence, 480 h, LOLMU, pre-emergence, individual, use rate 7.75 g ai/ha, read-out: observed % activity 20 DAT): 30%
inhibition at 31 g/ha ([2]; Lolium multiflorum, pre-emergence, 480 h, LOLMU, pre-emergence, individual, use rate 31 g ai/ha, read-out: observed % activity 20 DAT): 70%
inhibition at 31 g/ha ([2]; Lolium multiflorum, pre-emergence, 480 h, pre-emergence, use rate 31 g ai/ha, read-out: observed % activity 20 DAT): 70%
inhibition at 62 g/ha ([2]; Lolium multiflorum, pre-emergence, 480 h, pre-emergence, use rate 62 g ai/ha, read-out: observed % activity 20 DAT): 90%
observed % activity 20 DAT [2, 14]: 15% and 20% and 0%
observed % activity 20 DAT [2, 15]: 35% and 50% and 25%
observed % activity 20 DAT [2, 16]: 80%
observed % activity 20 DAT [2, 17]: 85%
inhibition at 15.5 g/ha ([3]; Geranium pusillum, 480 h, use rate 15.5 g ai/ha, read-out: observed % activity 20 DAT): 75%
observed % activity 20 DAT ([3]; use rate 7.75 g ai/ha): 50%
inhibition at 15.5 g/ha ([4]; Alopecurus myosuroides, pre-emergence, 480 h, ALOMY, pre-emergence, individual, use rate 15.5 g ai/ha, read-out: observed % activity 20 DAT): 65%
inhibition at 31 g/ha ([4]; Alopecurus myosuroides, pre-emergence, 480 h, ALOMY, pre-emergence, individual, use rate 31 g ai/ha, read-out: observed % activity 20 DAT): 90%
inhibition at 62 g/ha ([4]; Alopecurus myosuroides, pre-emergence, 480 h, ALOMY, pre-emergence, individual, use rate 62 g ai/ha, read-out: observed % activity 20 DAT): 90%
inhibition at 7.75 g/ha ([4]; Alopecurus myosuroides, pre-emergence, 480 h, pre-emergence, use rate 7.75 g ai/ha, read-out: observed % activity 20 DAT): 65%
inhibition at 31 g/ha ([4]; Alopecurus myosuroides, pre-emergence, 480 h, pre-emergence, use rate 31 g ai/ha, read-out: observed % activity 20 DAT): 90%
inhibition at 62 g/ha ([4]; Alopecurus myosuroides, pre-emergence, 480 h, pre-emergence, use rate 62 g ai/ha, read-out: observed % activity 20 DAT): 90%
observed % activity 20 DAT [4, 14]: 75%
observed % activity 20 DAT [4, 15]: 70% and 95%
observed % activity 20 DAT [4, 16]: 98%
observed % activity 20 DAT [4, 17]: 95% and 98%
inhibition at 31 g/ha [5, 18]: 75%
inhibition at 62 g/ha [5, 18]: 90%
inhibition at 16.5 g/ha ([5]; Bassia scoparia, pre-emergence, 480 h, pre-emergence, use rate 16.5 g ai/ha, read-out: observed % activity 20 DAT): 65%
inhibition at 31 g/ha [5, 19]: 95%
inhibition at 62 g/ha [5, 19]: 90%
observed % activity 20 DAT [5, 14]: 85% and 55%
observed % activity 20 DAT [5, 15]: 85%
inhibition at 7.75 g/ha ([6]; SETFA, individual, use rate 7.75 g ai/ha): 90%
inhibition at 15.5 g/ha ([6]; SETFA, individual): 98%
inhibition at 7.75 g/ha ([6]; use rate 7.75 g ai/ha): 75%
inhibition at 15.5 g/ha [6]: 95%
observed % activity 20 DAT ([6]; use rate 7.75 g ai/ha): 65%
inhibition at 7.75 g/ha ([7]; use rate 7.75 g ai/ha): 90%
inhibition at 15.5 g/ha ([7]; use rate 15.5 g ai/ha): 85%
inhibition at 31 g/ha ([8]; Phalaris canariensis, pre-emergence, 480 h, pre-emergence, use rate 31 g ai/ha, read-out: observed % activity 20 DAT): 80%
inhibition at 62 g/ha ([8]; Phalaris canariensis, pre-emergence, 480 h, pre-emergence, use rate 62 g ai/ha, read-out: observed % activity 20 DAT): 75%
observed % activity 20 DAT [8, 15]: 60%
observed % activity 20 DAT [8, 16]: 85%
observed % activity 20 DAT [8, 17]: 70%
inhibition at 62 g/ha ([9]; Fallopia convolvulus, pre-emergence, 480 h, POLCO, pre-emergence, individual, read-out: observed % activity 20 DAT): 95%
inhibition at 7.75 g/ha ([9]; Fallopia convolvulus, pre-emergence, 480 h, pre-emergence, use rate 7.75 g ai/ha, read-out: observed % activity 20 DAT): 70%
inhibition at 15.5 g/ha ([9]; Fallopia convolvulus, pre-emergence, 480 h, pre-emergence, use rate 15.5 g ai/ha, read-out: observed % activity 20 DAT): 90%
inhibition at 62 g/ha ([9]; Fallopia convolvulus, pre-emergence, 480 h, pre-emergence, read-out: observed % activity 20 DAT): 95%
observed % activity 20 DAT [9, 14]: 75%
inhibition at 15.5 g/ha ([10]; Apera spica-venti, 480 h, read-out: observed % activity 20 DAT): 95%
observed % activity 20 DAT [10]: 98%

COC[C@H](C)N(C(=O)CCl)c1c(C)csc1C [dimethenamid-P]
observed % activity ([2]; 125 g ai/ha): 95%
observed % activity ([2]; 250 g ai/ha): 95%
observed % activity ([11]; 125 g ai/ha): 30%
observed % activity ([11]; 250 g ai/ha): 50%
observed % activity ([4]; 125 g ai/ha, 20 DAT): 45%
observed % activity ([5]; 125 g ai/ha): 40%
observed % activity ([5]; 250 g ai/ha): 85%
observed % activity ([8]; 125 g ai/ha, 20 DAT): 80%
observed % activity ([9]; 125 g ai/ha): 55%
observed % activity ([9]; 250 g ai/ha): 50%
observed % activity [12]: 98%
observed % activity [13]: 65%

Source: patent publication US9999222B2, “Herbicidal combination comprising azines” (BASF SE, priority 2014, dated 2018)
